Assay results from patent US11331299B2, “Medicinal use of serrulatane diterpenes” (The University of Sydney, priority 2016, dated 2022).
Where two headings read alike, the source gives them in different places.

Legend:
[1] = biological target: T1, Histamine H2 (Homo sapiens, UniProt P25021); experiment: Histamine H2 radio ligand binding
T1 construct: expressed in transfected cells; host or cells: CHO-K1 cells
Description: (§1) The in vitro pharmacological studies were conducted by Eurofins PanLab (Taiwan) using the parameters shown in Table 13 with respect to appropriate literature references.

[2] = tested on: Angiotensin, AT1/ACE; experiment: Angiotensin, AT1/ACE, guinea pig ileum (isotonic); set-up: species or system Dunkin Hartley Guinea pig; details: 10 μM; assay year 2015
Description: as §1

[3] = biological target: T2, Lipoxygenase 12-LO (Homo sapiens, UniProt P18054); experiment: Lipoxygenase 12-LO; assay type: biochemical; details: assay year 2015, read-out: % Control Response
T2 construct: Human platelets; from tissue; host or cells: human platelets
T2 sequence (P18054 1-663): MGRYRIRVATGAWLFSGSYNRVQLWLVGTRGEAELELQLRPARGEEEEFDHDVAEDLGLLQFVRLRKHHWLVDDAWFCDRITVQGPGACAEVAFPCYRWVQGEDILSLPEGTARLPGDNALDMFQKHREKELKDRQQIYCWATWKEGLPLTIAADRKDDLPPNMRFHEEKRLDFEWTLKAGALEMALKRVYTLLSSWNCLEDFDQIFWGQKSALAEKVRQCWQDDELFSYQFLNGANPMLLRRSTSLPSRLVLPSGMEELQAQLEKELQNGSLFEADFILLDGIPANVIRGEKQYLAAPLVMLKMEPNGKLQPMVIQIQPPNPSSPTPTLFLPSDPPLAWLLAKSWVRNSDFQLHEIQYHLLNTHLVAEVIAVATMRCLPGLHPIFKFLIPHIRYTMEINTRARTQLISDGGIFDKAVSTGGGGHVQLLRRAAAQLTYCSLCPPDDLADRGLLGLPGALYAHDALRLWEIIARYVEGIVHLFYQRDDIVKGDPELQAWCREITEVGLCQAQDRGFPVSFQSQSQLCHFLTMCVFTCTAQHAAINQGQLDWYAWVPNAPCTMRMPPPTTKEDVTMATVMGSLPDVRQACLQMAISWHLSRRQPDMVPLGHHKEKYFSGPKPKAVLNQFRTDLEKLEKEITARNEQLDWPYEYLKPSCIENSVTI
Description: as §1

[4] = biological target: T3, SMARCA2 (h) bromodomain (Homo sapiens, UniProt P51531); experiment: Epigenetic binding assay, Bromodomain; details: for inhibition at 10 µM: read-out: % Inhibition of Control Specific Binding
T3 construct: Bromodomain
T3 sequence (P51531 1378-1506 limits assumed): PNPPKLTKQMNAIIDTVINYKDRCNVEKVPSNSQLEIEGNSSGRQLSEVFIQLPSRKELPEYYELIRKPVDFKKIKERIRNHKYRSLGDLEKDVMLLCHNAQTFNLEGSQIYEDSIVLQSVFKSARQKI

[5] = tested on: HUVEC endothelium cells (normal cell line); experiment: In vitro cell viability assay (intracellular ATP, 72 hour); assay type: cell-based; details: 10 μM; for % Cell growth: HUVEC, Endothelium (Normal)
[6] = biological target: MSK1(h) (substrate histone H3 full length) (Homo sapiens, UniProt O75582); experiment: Epigenetic enzyme assay, Kinases; assay type: biochemical; details: read-out: % Inhibition of Control Values
MSK1(h) (substrate histone H3 full length), sequence (O75582 whole entry): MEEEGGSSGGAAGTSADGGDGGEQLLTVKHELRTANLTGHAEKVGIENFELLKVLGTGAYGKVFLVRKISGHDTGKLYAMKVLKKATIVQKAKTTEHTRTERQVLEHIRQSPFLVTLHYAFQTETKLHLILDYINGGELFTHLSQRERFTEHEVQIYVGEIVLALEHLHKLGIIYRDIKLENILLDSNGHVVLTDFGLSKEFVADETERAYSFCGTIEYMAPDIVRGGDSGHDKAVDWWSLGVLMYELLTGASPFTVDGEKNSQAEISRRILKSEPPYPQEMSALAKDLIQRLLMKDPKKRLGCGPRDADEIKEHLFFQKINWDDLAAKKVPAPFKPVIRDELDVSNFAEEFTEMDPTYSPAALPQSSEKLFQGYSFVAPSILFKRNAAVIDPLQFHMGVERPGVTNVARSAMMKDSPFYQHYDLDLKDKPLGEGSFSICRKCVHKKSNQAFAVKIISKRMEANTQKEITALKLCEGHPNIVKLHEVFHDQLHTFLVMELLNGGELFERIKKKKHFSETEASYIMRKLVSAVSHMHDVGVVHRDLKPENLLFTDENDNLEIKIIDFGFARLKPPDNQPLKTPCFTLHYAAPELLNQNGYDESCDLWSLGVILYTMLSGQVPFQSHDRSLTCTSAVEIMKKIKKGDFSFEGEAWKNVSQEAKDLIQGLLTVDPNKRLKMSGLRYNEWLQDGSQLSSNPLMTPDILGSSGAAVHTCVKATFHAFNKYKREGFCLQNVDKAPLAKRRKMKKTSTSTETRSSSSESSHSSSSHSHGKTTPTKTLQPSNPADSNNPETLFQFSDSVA

[7] = tested on: Hs 852.T; experiment: OncoPanel cell proliferation assay (10-day); assay type: cell-based, human; details: for EC50 / GI50 / IC50: Homo sapiens, Skin (Melanoma); for EC50: read-out: Cell Count EC50; for GI50: read-out: Cell Count GI50; for IC50: read-out: Cell Count IC50
[8] = biological target: T4, CYP2C8 (Homo sapiens, UniProt P10632); experiment: Cytochrome P450 Inhibition (CYP panel); assay type: in vitro ADME; details: probe paclitaxel
T4 construct: Human liver microsomes; from tissue; host or cells: human liver microsomes
T4 sequence (P10632 1-490): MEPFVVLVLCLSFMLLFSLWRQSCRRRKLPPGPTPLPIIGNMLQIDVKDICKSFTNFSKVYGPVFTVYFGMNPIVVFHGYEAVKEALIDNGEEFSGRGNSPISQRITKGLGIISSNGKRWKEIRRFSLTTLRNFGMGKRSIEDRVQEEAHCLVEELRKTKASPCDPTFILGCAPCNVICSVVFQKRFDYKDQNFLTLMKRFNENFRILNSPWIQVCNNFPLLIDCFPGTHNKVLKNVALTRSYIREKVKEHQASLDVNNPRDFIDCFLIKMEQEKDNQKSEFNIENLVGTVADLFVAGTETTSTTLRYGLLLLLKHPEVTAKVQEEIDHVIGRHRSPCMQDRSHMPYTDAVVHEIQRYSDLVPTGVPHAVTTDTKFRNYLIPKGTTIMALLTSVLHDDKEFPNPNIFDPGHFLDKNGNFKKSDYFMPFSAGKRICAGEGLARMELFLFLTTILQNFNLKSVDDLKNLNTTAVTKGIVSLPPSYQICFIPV

[9] = biological target: T5, HDAC8 (h) (Homo sapiens, UniProt Q9BY41); experiment: Epigenetic enzyme assay, Histone deacetylase (HDACs); assay type: biochemical; details: read-out: % Inhibition of Control Values
T5 sequence (Q9BY41 1-377): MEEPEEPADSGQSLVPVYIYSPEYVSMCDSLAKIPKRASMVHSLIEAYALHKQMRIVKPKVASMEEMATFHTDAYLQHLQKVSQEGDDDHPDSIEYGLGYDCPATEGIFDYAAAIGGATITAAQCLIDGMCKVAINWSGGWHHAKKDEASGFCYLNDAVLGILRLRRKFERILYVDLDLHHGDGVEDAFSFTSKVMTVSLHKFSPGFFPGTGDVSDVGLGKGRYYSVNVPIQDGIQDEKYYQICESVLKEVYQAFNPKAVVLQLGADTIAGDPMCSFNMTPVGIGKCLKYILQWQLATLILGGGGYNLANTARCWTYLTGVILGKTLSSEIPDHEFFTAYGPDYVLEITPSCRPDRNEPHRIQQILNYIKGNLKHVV

[10] = assay year 2014, read-out: % Control Response
[11] = assay year 2015, read-out: % Control Response
[12] = human, human liver microsomes, read-out: % inhibition
[13] = CYP2C8 (paclitaxel sub.), Human liver microsomes, read-out: % Inhibition of Control Values

T1 sequence (P25021 whole entry): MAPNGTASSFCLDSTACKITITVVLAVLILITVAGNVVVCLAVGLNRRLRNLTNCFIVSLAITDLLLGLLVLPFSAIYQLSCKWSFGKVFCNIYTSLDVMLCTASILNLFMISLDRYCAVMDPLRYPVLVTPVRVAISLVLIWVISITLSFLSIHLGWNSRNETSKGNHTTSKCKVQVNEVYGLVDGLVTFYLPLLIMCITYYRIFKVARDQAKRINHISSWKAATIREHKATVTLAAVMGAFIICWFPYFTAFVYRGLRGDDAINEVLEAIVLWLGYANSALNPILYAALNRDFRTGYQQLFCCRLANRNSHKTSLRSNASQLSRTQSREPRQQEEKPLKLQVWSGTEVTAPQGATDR

SMILES | remaining activity at 10 µM [1, 10] | remaining activity at 10 µM [1, 11] | % Control Response, Agonist [2] | % Control Response, Antagonist [2] | remaining activity at 10 µM [3] | inhibition at 10 µM [4] | % Cell growth [5] | inhibition at 10 µM [6] | EC50 [7] | GI50 [7] | IC50 [7] | inhibition at 1 µM [8, 12] | inhibition at 1 µM [8, 13] | inhibition at 10 µM [8, 13] | inhibition at 10 µM [9] | also measured
CC(C)=CCC[C@H](CO)[C@@H]1CC[C@@H](C)c2c1cc(C)c(O)c2O [Compound 1, 7,8,18-trihydroxyserrulat-14-ene] | 67% | 73% | 0% | 34% | 60% | 83% | −90% | 6% | 2.49 µM | 2.42 µM | 2.56 µM | 12 to 24% | 14% | 76% | -8% | % Inhibition of Control Specific Binding ([4]; 10 μM): significant inhibitory activity; Relative cell count (%) Mean ([7]; 3.00E+00 microM): 41.6%; Relative cell count (%) Mean ([7]; 3.00E+01 microM): 2.7%; Relative cell count (%) Mean ([7]; 3.01E−01 microM): 95.3%; Relative cell count (%) Mean ([7]; 3.01E−02 microM): 94.5%; Relative cell count (%) Mean ([7]; 3.02E−03 microM): 104.5%; Relative cell count (%) Mean ([7]; 9.49E+00 microM): 13.1%; Relative cell count (%) Mean ([7]; 9.51E−01 microM): 85.5%; Relative cell count (%) Mean ([7]; 9.52E−02 microM): 92.2%; Relative cell count (%) Mean ([7]; 9.53E−03 microM): 100.2%; Relative cell count (%) Mean ([7]; 9.55E−04 microM): 104.3%
CC(C)=CCC[C@@H]1C(O)Oc2c(C)cc(O)c3c2[C@H]1CC[C@H]3C (stereo partly drawn) [Compound 2, 5,18-epoxyserrulat-14-en-8,18-diol] | 24% | -5% | 0% | 10% | 40% | 21% | 97% | 2% | 15.4 µM | 14.7 µM | 15.4 µM | 12 to 24% | 12% | 52% | -19% | –
CC(C)=CCC[C@@H]1COc2c(C)cc(O)c3c2[C@H]1CC[C@H]3C [Compound 3, 5,18-epoxy-8-hydroxyserrulat-14-ene] | – | 66% | 0% | 17% | 29% | 18% | 91% | 10% | – | – | – | – | – | – | 0% | –
CC(C)=CCC[C@H](C)[C@@H]1CC[C@@H](C)c2c1cc(C)c(O)c2O [Compound 4, 7,8-dihydroxyserrulat-14-ene] | – | – | – | – | – | – | 37% | – | 12 µM | 11.6 µM | 12 µM | 12 to 24% | 24% | 61% | – | reduction in the growth [5]: no significant reduction
